Laboratory results from ChEMBL document CHEMBL1221225, “A small molecule that directs differentiation of human ESCs into the pancreatic lineage” (Nat Chem Biol, 2009).
Calls of active or inactive are those of the source. No cut-off for these calls is given here.

What was measured:
[1] = organism: Homo sapiens; assay: Induction of C-peptide release in human HUES8 insulin-producing cell at 300 nM after 4 days by ELISA; assay type: functional
[2] = organism: Homo sapiens; assay: Induction of human HUES4 cell differentiation into pancreatic progenitor cells assessed as increase in Pdx1-expression in cells pregrown with medium containing Wnt, activin, FGF10, KAAD-cyclopamine and retinoic acid at 300 nM after 4 days by Opera high content screening system relative to control; assay type: functional, cell-based
[3] = Effect on glucagon expression in human HUES8 insulin-producing cells at 300 nM after 4 days by immunocytochemistry (reference value: 75.2 +/- 9.1%); assay type: functional
[4] = Induction of human HUES8 cell differentiation into pancreatic progenitor cell assessed as NKX6.1 expression in cells pregrown in medium containing Wnt, activin, FGF10, KAAD-cyclopamine and retinoic acid at 300 nM after 4 days by immunocytochemistry relative to control; assay type: functional
[5] = Induction of human HUES9 cell differentiation into pancreatic lineage assessed as increase in Pdx1-expression in cells pregrown with medium containing Wnt, activin, FGF10, KAAD-cyclopamine and retinoic acid after 1 day by Opera high content screening system; assay type: functional, cell-based; details: HUES9, 24 h
[6] = Induction of insulin production in differentiated human HUES8 cells at 300 nM after 4 days by immunocytochemistry (reference value: 0%); assay type: functional
[7] = Inhibition of PKC signaling in human HUES8 cells assessed as decrease in Pdx1-expressing cells at 4 uM after 4 days by immunocytochemistry in presence of ILV pregrown in medium with Wnt3a, activin A, FGF10, KAAD-cyclopamine and retinoic acid (reference value: 26.9+/-2.8%); assay type: cell-based
[8] = Induction of mouse AV3 cell differentiation into pancreatic lineage assessed as increase in Pdx-1 expression at 300 nM after 6 days by immunohistochemistry pretreated with 1000 ng/ml recombinant mouse Nodal for 5 days (reference value: 4.0+/-1.5%); assay type: functional
[9] = Induction of human HUES8 differentiation into pancreatic lineage assessed as increase in amylase/CPA double-positive exocrine cells at 300 nM after 4 days by RT-PCR (Rvb (DMSO) = 0.2+/-0.1%); assay type: functional
[10] = Induction of human HUES8 cell differentiation into pancreatic progenitor cell assessed as PTF1A expression in cells pregrown in medium containing Wnt, activin, FGF10, KAAD-cyclopamine and retinoic acid at 300 nM after 4 days by immunocytochemistry relative to control; assay type: functional
[11] = Inhibition of PKC signaling in human HUES8 cells assessed as decrease in Pdx1-expressing cells at 1 uM after 4 days cells pregrown in medium with Wnt3a, activin A, FGF10, KAAD-cyclopamine and retinoic acid in presence of 10 uM Go 6983 by immunocytochemistry (reference value: 26.9+/-2.8%); assay type: cell-based
[12] = Induction of cell proliferation in human HUES8 Pdx1 expressing cells assessed as expression of Ki67 at 300 nM after 4 days by immunocytochemistry; assay type: functional
[13] = organism: Mus musculus; assay: Induction of nestin expression in CD1 nude mouse ectoderm at 300 nM after 4 days by fluorescent confocal microscopy; assay type: functional, tissue-based
[14] = tested on: HUES8; assay: Induction of human HUES8 cell differentiation into pancreatic progenitor cell assessed as increase in HB9 mRNA expression at 300 nM after 4 days by RT-PCR analysis pregrown in medium containing Wnt, activin, FGF10, KAAD-cyclopamine and retinoic acid; assay type: functional, cell-based
[15] = organism: Homo sapiens; assay: Induction of human HUES8 differentiation into definitive endoderm assessed as expression of SOX17 at 300 nM after 3 days by immunocytochemistry; assay type: functional
[16] = tested on: HUES8; assay: Induction of human HUES8 cell differentiation into pancreatic progenitor cell assessed as increase in PROX1 mRNA expression at 300 nM after 4 days by RT-PCR analysis cells pregrown in medium containing Wnt, activin, FGF10, KAAD-cyclopamine and retinoic acid; assay type: functional, cell-based
[17] = Induction of insulin production in differentiated human HUES8 cells at 300 nM after 4 days by immunocytochemistry (reference value: 0.2+/-0.1%); assay type: functional
[18] = organism: Homo sapiens; assay: Effect on human HUES8 differentiation into neuronal lineage assessed as c-peptide/GFAP double positive cells at 300 nM after 4 days by immunocytochemistry; assay type: functional
[19] = tested on: Intestine; assay: Induction of FABP2 expression in CD1 nude mouse intestine at 300 nM after 4 days by fluorescent confocal microscopy; assay type: functional, tissue-based
[20] = organism: Homo sapiens; assay: Induction of human HUES8 differentiation into pancreatic lineage assessed as increase in somatostatin-producing endocrine cells at 300 nM after 4 days by immunostaining; assay type: functional
[21] = tested on: Stomach; assay: Induction of BARX1 expression in CD1 nude mouse stomach at 300 nM after 4 days by fluorescent confocal microscopy; assay type: functional, tissue-based
[22] = tested on: HUES8; assay: Induction of human HUES8 cell differentiation into pancreatic progenitor cell assessed as increase in NKX6.1 mRNA expression at 300 nM after 4 days by RT-PCR analysis cells pregrown in medium containing Wnt, activin, FGF10, KAAD-cyclopamine and retinoic acid; assay type: functional, cell-based
[23] = tested on: AV3; assay: Induction of mouse AV3 cell differentiation into pancreatic lineage assessed as increase in ptf1a mRNA expression at 300 nM after 6 days by RT-PCR analysis pretreated with 1000 ng/ml recombinant mouse Nodal for 5 days; assay type: functional, cell-based
[24] = tested on: HUES2; assay: Induction of human HUES2 cell differentiation into pancreatic progenitor cells assessed as increase in Pdx1-expression in cells pregrown with medium containing Wnt, activin, FGF10, KAAD-cyclopamine and retinoic acid at 300 nM after 4 days by Opera high content screening system relative to control; assay type: functional, cell-based
[25] = organism: Mus musculus; assay: Induction of mouse AV3 Pdx1-expressing cell differentiation assessed as increase in Nkx6.1 expression at 300 nM after 6 days by immunohistochemistry pretreated with 1000 ng/ml recombinant mouse Nodal for 5 days; assay type: functional
[26] = Induction of human HUES8 cell differentiation into pancreatic progenitor cell assessed as HNF6 expression in cells pregrown in medium containing Wnt, activin, FGF10, KAAD-cyclopamine and retinoic acid at 300 nM after 4 days by immunocytochemistry relative to control; assay type: functional
[27] = tested on: AV3; assay: Induction of mouse AV3 cell differentiation into pancreatic lineage assessed as increase in Nkx2.2 mRNA expression at 300 nM after 6 days by RT-PCR analysis pretreated with 1000 ng/ml recombinant mouse Nodal for 5 days; assay type: functional, cell-based
[28] = tested on: AV3; assay: Induction of mouse AV3 cell differentiation into pancreatic lineage assessed as increase in cdcp1 mRNA expression at 300 nM after 6 days by RT-PCR analysis pretreated with 1000 ng/ml recombinant mouse Nodal for 5 days; assay type: functional, cell-based
[29] = tested on: HUES8; assay: Induction of human HUES8 cell differentiation into pancreatic progenitor cell assessed as increase in PTF1A mRNA expression at 300 nM after 4 days by RT-PCR analysis cells pregrown in medium containing Wnt, activin, FGF10, KAAD-cyclopamine and retinoic acid; assay type: functional, cell-based
[30] = organism: Homo sapiens; assay: Induction of Pdx1 expression in human HUES8 insulin-producing cells at 300 nM after 4 days by immunocytochemistry relative to control; assay type: functional
[31] = tested on: Liver; assay: Induction of Albumin expression in CD1 nude mouse liver at 300 nM after 4 days by fluorescent confocal microscopy; assay type: functional, tissue-based

Q: Which Activity [1] does the source give for `CC(C)[C@H]1C(=O)N[C@H](CO)Cc2c[nH]c3cccc(c23)N1C` [INDOLACTUM] here?
A: The Activity was “Active”.

Q: What about the Activity [2] of the same compound?
A: Its Activity is “Active”.

Q: And the Activity [3]?
A: Its Activity is 19.5%.

Q: What about the Activity [4] of the same compound?
A: The Activity was 83.5%.

Q: What about the EC50 [5] of the same compound?
A: Its EC50 is 0.142 µM.

Q: What about the Activity [6] of the same compound?
A: Its Activity is 0.5%.

Q: And the inhibition [7]?
A: The inhibition was 1.2%.

Q: And the Activity [8]?
A: Its Activity is 50%.

Q: And the Activity [9]?
A: The Activity was 22.7%.

Q: And the Activity [10]?
A: The Activity was 90.1%.

Q: And the inhibition [11]?
A: The inhibition was 0.8%.

Q: What about the Activity [12] of the same compound?
A: The Activity was 0.1%.

Q: And the Activity [13]?
A: The Activity was “inactive”.

Q: What about the Activity [14] of the same compound?
A: Its Activity is “Active”.

Q: What about the Activity [15] of the same compound?
A: Its Activity is “inactive”.

Q: And the Activity [16]?
A: The Activity was “Active”.

Q: What about the Activity [17] of the same compound?
A: Its Activity is 0.5%.

Q: What about the Activity [18] of the same compound?
A: Its Activity is “inactive”.

Q: What about the Activity [19] of the same compound?
A: The Activity was “inactive”.

Q: And the Activity [20]?
A: Its Activity is “Active”.

Q: What about the Activity [21] of the same compound?
A: The Activity was “inactive”.

Q: What about the Activity [22] of the same compound?
A: Its Activity is “Active”.

Q: What about the Activity [23] of the same compound?
A: The Activity was “Active”.

Q: What about the Activity [24] of the same compound?
A: Its Activity is “Active”.

Q: What about the Activity [25] of the same compound?
A: The Activity was “Active”.

Q: And the Activity [26]?
A: Its Activity is 91.3%.

Q: What about the Activity [27] of the same compound?
A: The Activity was “Active”.

Q: And the Activity [28]?
A: The Activity was “Active”.

Q: And the Activity [29]?
A: The Activity was “Active”.

Q: And the Activity [30]?
A: The Activity was “Active”.

Q: What about the Activity [31] of the same compound?
A: The Activity was “inactive”.
